US12257251B2, “Use of FAK inhibitor in preparation of drug for treating tumors having NRAS mutation” (INXMED (NANJING) CO., LTD., priority 2019, dated 2025)

Test system: HMVII (NRAS^Q61K) melanoma cell line
Test: HMVII CDX model (melanoma with an NRAS mutation): tumor growth
Type: in vivo, mouse
Details: for Tumor growth compared to the control group (in words): HMVII model, daily treatment; for Mean TGI: daily, based on relative tumor volume on day 14
Experimental: 1.1. Test compound: BI853520, which was synthesized according to the method in the patent WO2010058032. BI853520 was formulated with 0.5% hydroxyethyl cellulose (Ashland).
1.2. Cells: The melanoma cell line GAK was purchased from JCRB Cell Bank, and HMVII cells were purchased from Sigma. GAK originated in the inguinal lymph nodes of patients with vaginal melanoma, whereas HMVII originated in primary vaginal melanoma. GAK and HMVII cells were cultured in tissue culture flasks containing 5% CO2 at 37° C. The media were Ham's F12 containing 10% heat-inactivated FBS and Ham's F10 containing 15% FBS, respectively. All media were supplemented with 100 U/mL penicillin, […] streptomycin, and 2 mM GlutaMAX. All cell culture reagents were purchased from GIBCO.
Both HMVII and GAK cell lines carried an NRAS mutation at the Q61 position. HMVII (NRAS^Q61K) and GAK (NRAS^Q61L)
1.3. Mice: 4-week-old female balb/c nude mice (purchased from Beijing Vital River Laboratory Animal Technology Co., Ltd.). After arriving in the animal room, the mice were allowed to acclimate to the new environment for at least 2 weeks before being used for assay. The animals were housed under standard conditions (temperature: 21.5±1.5° C., humidity: 55±10%). A Standard diet and autoclaved tap water were provided ad libitum. All animal care and experimental procedures were performed in accordance with the animal care ethics guidelines approved by the Medical Ethics Committee of Beijing Cancer Hospital and Research Institute.
To establish subcutaneous tumors, HMVII and GAK cells were harvested by trypsinization, centrifuged, washed and resuspended in ice-cold PBS+5% FCS. Then 100 l of the cell suspension containing 5×10^6 cells was injected subcutaneously into the right flank of nude mice (1 site per mouse). When tumors were well established and reached a median volume of approximately 400-600 mm^3, mice were randomly assigned to the treatment group and the control group.
1.5. Administration: BI 853520 was formulated in 0.5% hydroxyethyl cellulose, which was intragastrically administered through gavage needle every day, and the dosage was 10 mL/Kg body weight.
Tumor diameters were measured twice a week with calipers. The volume [mm^3] of each tumor was calculated according to the equation “tumor volume=length×diameter^2×π/6”. Animals were sacrificed at the end of the study (approximately two weeks after the start of treatment). During the study, animals with necrotic tumors or tumors exceeding 2000 mm^3 in size were sacrificed for ethical reasons.
Tumor volumes were statistically assessed at the end of the assay. For tumor volume, relative values were used.
The number of observations, and the median, minimum and maximum tumor volumes were calculated. For a quick overview of possible treatment effects, the following metrics were calculated: • Relative tumor volume: (T/C)
[formula] • TGI from day 1 to day d: TGI=100×[(Cd−C1)−(Td−T1)]/(Cd−C1) • wherein, C1, T1=mean relative tumor volume in control and treatment groups at the start of the assay (day 1); • Cd, Td=mean relative tumor volume in control and treatment groups at the end of the assay (day d).
Statistical evaluation was performed using the Student's t-test function in Microsoft Excel, using two-tailed distribution and two-sample equal variance type.
The significance level was fixed at α=5%. […]

COc1cc(C(=O)NC2CCN(C)CC2)c(F)cc1Nc1ncc(C(F)(F)F)c(Oc2cccc3c2C(=O)N(C)C3)n1 [BI853520]
Tumor growth compared to the control group (in words): inhibit tumor growth | Tumor growth compared to the control group (in words) (listed as BI 853520): delayed tumor growth | Mean tumor volume (HMVII, 50 mg/kg (1st week), 25 mg/kg (2nd week), daily gavage, day 14): 671 ± 606 mm^3 | Mean TGI (HMVII, 50 mg/kg (1st week), 25 mg/kg (2nd week)): 60% | Mean TGI (HMVII, 50 mg/kg (1st week), 25 mg/kg (2nd week), listed as BI 853520): 60%
